Source: ChEMBL document CHEMBL6096682, “Discovery of D-Ring-Contracted Artemisinin as a Potent Hydrophobic Tag for Targeted Protein Degradation” (J Med Chem, 2025)
The source made the active and inactive calls. The calls are words filed in the database; no cut-off is given here.

What was measured:
[1] = target: T1, Estrogen receptor (Homo sapiens) (UniProt P03372); assay: HyT degrader activity at ER-alpha in human MCF7 cells assessed as induction of ER-alpha degradation incubated for 24 hrs by western blot analysis; format: cell-based; details: dose 0.01-100 µM
T1 sequence (whole entry): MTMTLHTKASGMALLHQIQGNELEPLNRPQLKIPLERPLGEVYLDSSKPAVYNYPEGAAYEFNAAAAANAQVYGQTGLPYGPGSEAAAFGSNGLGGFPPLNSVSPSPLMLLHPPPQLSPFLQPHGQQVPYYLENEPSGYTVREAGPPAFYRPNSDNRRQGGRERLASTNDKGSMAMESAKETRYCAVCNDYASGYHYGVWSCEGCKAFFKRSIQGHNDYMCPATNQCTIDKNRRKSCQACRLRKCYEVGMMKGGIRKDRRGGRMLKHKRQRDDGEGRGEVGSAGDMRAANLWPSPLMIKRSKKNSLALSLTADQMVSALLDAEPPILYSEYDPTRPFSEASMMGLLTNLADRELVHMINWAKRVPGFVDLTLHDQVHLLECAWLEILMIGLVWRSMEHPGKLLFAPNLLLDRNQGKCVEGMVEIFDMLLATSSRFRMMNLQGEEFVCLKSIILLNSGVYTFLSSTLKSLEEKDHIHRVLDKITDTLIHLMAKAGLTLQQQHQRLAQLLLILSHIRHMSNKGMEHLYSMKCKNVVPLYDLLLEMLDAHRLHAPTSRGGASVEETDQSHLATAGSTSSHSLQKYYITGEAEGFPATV

[2] = target: T1, Estrogen receptor (Homo sapiens); assay: HyT degrader activity at ER-alpha in human MCF7 cells assessed as induction of ER-alpha degradation by measuring decrease in ER-alpha level at 10 uM incubated for 72 hrs by western blot analysis; format: cell-based
[3] = target: T1, Estrogen receptor (Homo sapiens); assay: HyT degrader activity at ER-alpha in human MCF7 cells assessed as induction of ER-alpha degradation by measuring decrease in ER-alpha level at 10 uM incubated for 48 hrs followed by drug wash-out and measured after 72 hrs by western blot analysis; format: cell-based
[4] = target: T1, Estrogen receptor (Homo sapiens); assay: HyT degrader activity at ER-alpha in human T47D cells assessed as induction of ER-alpha degradation by measuring downregulation of ER-alpha level at 1 to 5 uM incubated for 24 hrs by immunoblot analysis; format: cell-based; details: dose 1-5 µM
[5] = target: Estrogen receptor beta (Homo sapiens) (UniProt Q92731); assay: HyT degrader activity at ER-beta in human MCF7 cells assessed as induction of ER-beta degradation by measuring decrease in ER-beta level at 1 to 10 uM incubated for 24 hrs by immunoblot analysis; format: cell-based; details: dose 1-10 µM
Sequence of Estrogen receptor beta (Homo sapiens) (Q92731 whole entry): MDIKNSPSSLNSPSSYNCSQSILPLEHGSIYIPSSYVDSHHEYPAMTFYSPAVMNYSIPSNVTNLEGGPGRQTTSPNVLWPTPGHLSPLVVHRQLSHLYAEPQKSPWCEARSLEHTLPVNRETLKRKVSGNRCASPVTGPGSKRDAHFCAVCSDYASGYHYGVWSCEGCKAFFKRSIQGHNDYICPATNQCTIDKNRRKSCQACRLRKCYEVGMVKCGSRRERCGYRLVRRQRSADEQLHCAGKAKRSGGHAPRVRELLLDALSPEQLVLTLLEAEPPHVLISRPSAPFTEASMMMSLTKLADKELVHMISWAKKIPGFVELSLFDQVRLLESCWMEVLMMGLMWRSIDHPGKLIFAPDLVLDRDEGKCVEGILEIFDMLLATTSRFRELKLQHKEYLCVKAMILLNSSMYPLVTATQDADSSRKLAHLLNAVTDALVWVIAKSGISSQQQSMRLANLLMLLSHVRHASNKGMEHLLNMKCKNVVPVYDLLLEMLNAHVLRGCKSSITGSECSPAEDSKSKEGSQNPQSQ

[6] = target: T1, Estrogen receptor (Homo sapiens); assay: HyT degrader activity at ER-alpha in human MCF7 cells assessed as induction of ER-alpha degradation by measuring residual ER-alpha level at 10 uM pretreated with HSP70 inhibitor, VER-155008 for 2 hrs followed by incubation with compound for 12 hrs by immunoblot analysis; format: cell-based
[7] = target: T1, Estrogen receptor (Homo sapiens); assay: HyT degrader activity at ER-alpha in human MCF7 cells assessed as induction of ER-alpha degradation by measuring decrease in ER-alpha level at 10 uM pretreated with HSP90 inhibitor, 17-AAG for 2 hrs followed by incubation with compound for 12 hrs by immunoblot analysis; format: cell-based
[8] = target: T1, Estrogen receptor (Homo sapiens); assay: HyT degrader activity at ER-alpha in human MCF7 cells assessed as induction of ER-alpha degradation by measuring residual ER-alpha level at 10 uM pretreated with HSP70 inhibitor, VER-155008 and HSP90 inhibitor, 17-AAG for 2 hrs followed by incubation with compound for 12 hrs by immunoblot analysis; format: cell-based
[9] = target: T1, Estrogen receptor (Homo sapiens); assay: HyT degrader activity at ER-alpha in human MCF7 cells assessed as induction of ER-alpha degradation by measuring decrease in ER-alpha level at 10 uM pretreated with 26S proteasome inhibitor, MG-132 for 2 hrs followed by incubation with compound for 12 hrs by immunoblot analysis; format: cell-based
MCF7 [10] = assay: Antiproliferative activity against human MCF7 cells assessed as reduction in cell viability incubated for 48 hrs by MTT assay relative to control; format: functional
MCF7 [11] = assay: Antiproliferative activity against human MCF7 cells overexpressing ER-alpha Y537S mutant assessed as reduction in cell viability incubated for 48 hrs by MTT assay; format: functional, cell-based; details: MCF7, 48 h
[12] = target: T1, Estrogen receptor (Homo sapiens); assay: Binding affinity to ER-alpha in human MCF7 cells assessed as increase in thermal stability of protein at 100 uM incubated for 1 hr followed by exposure to heat at 25 to 66 degC for 3 mins and incubation for 3 mins at room temperature by thermal shift binding assay; format: cell-based; details: time 66.0 min
MCF7 [13] = assay: Antitumor activity against human MCF7 cells xenografted in Balb/c mouse assessed as inhibition of tumor growth at 5 mg/kg, iv administered every 3 days and measured for 21 days; format: functional; details: MCF7, 504 h, time 21 day, read-out: TGI
MCF7 [14] = assay: Antitumor activity against human MCF7 cells xenografted in Balb/c mouse assessed as tumor volume at 10 mg/kg, iv administered every 3 days and measured for 21 days (reference value: 165.5 mm3); format: functional; details: time 21 day
MCF7 [15] = assay: Antitumor activity against human MCF7 cells xenografted in Balb/c mouse assessed as tumor tissue damage at 10 mg/kg, iv administered every 3 days and measured on day 21 by Hematoxylin-Eosin staining based analysis; format: functional, organism-based; details: time 21.0 day
Mus musculus = assay: In vivo induction of ER-alpha degradation in Balb/c mouse xenografted with human MCF7 cells assessed as decrease in ER-alpha expression in tumor at 5 to 10 mg/kg, iv administered every 3 days and measured on day 21 by immunofluorescence analysis; format: functional, organism-based; details: dose 5-10 mg/kg, time 21.0 day
[16] = Toxicity in Balb/c mouse xenografted with human MCF7 cells assessed as effect on white blood cells count at 5 to 10 mg/kg, iv measured after 24 hrs; format: organism-based; details: in vivo, dose 5-10 mg/kg
[17] = Toxicity in Balb/c mouse xenografted with human MCF7 cells assessed as effect on red blood cells count at 5 to 10 mg/kg, iv measured after 24 hrs; format: organism-based; details: in vivo, dose 5-10 mg/kg
[18] = Hepatotoxicity in Balb/c mouse xenografted with human MCF7 cells assessed as effect on ALT level in serum at 5 to 10 mg/kg, iv measured after 24 hrs; format: toxicity, organism-based; details: in vivo, dose 5-10 mg/kg
[19] = Hepatotoxicity in Balb/c mouse xenografted with human MCF7 cells assessed as effect on AST level in serum at 5 to 10 mg/kg, iv measured after 24 hrs; format: toxicity, organism-based; details: in vivo, dose 5-10 mg/kg
[20] = Nephrotoxicity in Balb/c mouse xenografted with human MCF7 cells assessed as effect on blood urea nitrogen level in serum at 5 to 10 mg/kg, iv measured after 24 hrs; format: toxicity, organism-based; details: in vivo, dose 5-10 mg/kg
[21] = Toxicity in Balb/c mouse xenografted with human MCF7 cells assessed as effect on heart morphological changes at 5 to 10 mg/kg, iv measured after 24 hrs by Hematoxylin-Eosin staining based analysis; format: organism-based; details: in vivo, dose 5-10 mg/kg
[22] = Toxicity in Balb/c mouse xenografted with human MCF7 cells assessed as effect on spleen morphological changes at 5 to 10 mg/kg, iv measured after 24 hrs by Hematoxylin-Eosin staining based analysis; format: organism-based; details: in vivo, dose 5-10 mg/kg
[23] = Toxicity in Balb/c mouse xenografted with human MCF7 cells assessed as effect on kidneys morphological changes at 5 to 10 mg/kg, iv measured after 24 hrs by Hematoxylin-Eosin staining based analysis; format: organism-based; details: in vivo, dose 5-10 mg/kg

## C[C@@H]1CCC2[C@]34OO[C@](C)(CCC13)O[C@@H]4O[C@]2(C)C(=O)NCCCOc1ccc(C(=O)c2c(-c3ccc(O)cc3)sc3cc(O)ccc23)cc1 (some centres undefined)
[1]
  Activity: Dose-dependent-effect
[2]
  Activity: Active
[3]
  Activity: inactive
[4]
  Activity: Active
[5]
  Activity: Active
[6]
  Activity: 71.9%
[7]
  Activity: inactive
[8]
  Activity: 91%
[9]
  Activity: inactive
MCF7 [10]
  inhibition (INH): 73.5%
MCF7 [11]
  IC50: 10.9 µM
[12]
  Activity: Active
MCF7 [13]
  inhibition in vivo at 5 mg/kg: 93.3%
MCF7 [14]
  Activity: 65.1 mm3
MCF7 [15]
  Activity: Active
Mus musculus
  Activity: Active
[16]
  Activity: Non-toxic
[17]
  Activity: Non-toxic
[18]
  Activity: Non-toxic
[19]
  Activity: Non-toxic
[20]
  Activity: Non-toxic
[21]
  Activity: Non-toxic
[22]
  Activity: Non-toxic
[23]
  Activity: Non-toxic
